Laboratory results: patent publication US8501755B2, “Tetrahydropyridothienopyrimidine compounds and methods of use thereof” (Bayer Intellectual Property GmbH, priority 2006, dated 2013)

Key:
Assay type in all cases: cell-based
H1975 cells = assay: In vitro tumor cell proliferation assay (Cell Titer-Glo) in H1975 cells; settings: NCI-H1975; H1975 human NSCLC expressing mutant HER1 (L858R,T790M); 72 hours exposure; read-out: IC50, activities in H 1975 cell lines
How it was run: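 After 72 h compound exposure at 37° C (top 10 uM down to 64 pM, 0.1% DMSO), viability of EGFR L858R/T790M-mutant H1975 cells was read as ATP luminescence.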

N87 = assay: In vitro tumor cell proliferation assay (Cell Titer-Glo) in N87 cells; settings: N87 human gastric carcinoma overexpressing HER2 and HER1; 72 hours exposure; read-out: IC50, activities in N87 cell lines
How it was run: (§1)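 Viability after 72 h drug exposure at 37 °C was read as CellTiter-Glo ATP luminescence, giving IC50. Cells (2.5×10^3/well, RPMI + 10% FBS) were compound-treated one day post-seeding, 0.1% DMSO final: A431 overexpresses HER1, N87 overexpresses HER2 and HER1.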

A431 cells = assay: In vitro tumor cell proliferation assay (Cell Titer-Glo) in A431 cells; settings: Homo sapiens, A-431, 72 h, A431 human epidermoid carcinoma overexpressing HER1; 72 hours exposure; read-out: IC50, activities in A431 cell lines
How it was run: as §1

Row | Compound | IC50 (H1975 cells) | IC50 (N87) | IC50 (A431 cells)
1 | O=C(/C=C/CN1CCOCC1)N1CCc2c(sc3ncnc(Nc4ccc5c(cnn5Cc5cccc(F)c5)c4)c23)C1 [Example 102, N-[1-(3-fluorobenzyl)-1H-indazol-5-yl]-7-[(2E)-4-morpholin-4-ylbut-2-enoyl]-5,6,7,8-tetrahydropyrido [4′,3′:4,5]thieno[2,3-d]pyrimidin-4-amine] | 1000 to 10000 nM | < 200 nM | 200 to 1000 nM
2 | O=C(/C=C/CN1CCOCC1)N1CCc2c(sc3ncnc(Nc4ccc5c(cnn5Cc5ccccc5)c4)c23)C1 [Example 103, N-(1-benzyl-1H-indazol-5-yl)-7-[(2E)-4-morpholin-4-ylbut-2-enoyl]-5,6,7,8-tetrahydropyrido [4′,3′:4,5]thieno[2,3-d]pyrimidin-4-amine] | 1000 to 10000 nM | < 200 nM | 200 to 1000 nM
3 | O=C(/C=C/CN1CCCCC1)N1CCc2c(sc3ncnc(Nc4ccc5c(cnn5Cc5ccccc5)c4)c23)C1 [Example 104, N-(1-benzyl-1H-indazol-5-yl)-7-[(2E)-4-piperidin-1-ylbut-2-enoyl]-5,6,7,8-tetrahydropyrido [4′,3′:4,5]thieno[2,3-d]pyrimidin-4-amine] | 200 to 1000 nM | < 200 nM | 200 to 1000 nM
4 | O=C(/C=C/CN1CCOCC1)N1CCc2c(sc3ncnc(Nc4ccc5c(ccn5Cc5ccccc5)c4)c23)C1 [Example 105, N-(1-benzyl-1H-indol-5-yl)-7-[(2E)-4-morpholin-4-ylbut-2-enoyl]-5,6,7,8-tetrahydropyrido [4′,3′:4,5]thieno[2,3-d]pyrimidin-4-amine] | 200 to 1000 nM | < 200 nM | < 200 nM
5 | O=C(/C=C/CN1CCCCC1)N1CCc2c(sc3ncnc(Nc4ccc5c(ccn5Cc5cccc(F)c5)c4)c23)C1 [Example 106, N-[1-(3-fluorobenzyl)-1H-indol-5-yl)-7-[(2E)-4-piperidin-1-ylbut-2-enoyl]-5,6,7,8-tetrahydropyrido [4′,3′:4,5]thieno[2,3-d]pyrimidin-4-amine] | 200 to 1000 nM | < 200 nM | < 200 nM
6 | CC(C)N(C)C/C=C/C(=O)N1CCc2c(sc3ncnc(Nc4ccc5c(cnn5Cc5ccccc5)c4)c23)C1 [Example 107, N-(1-benzyl-1H-indazol-5-yl)-7-{(2E)-4-[isopropyl(methyl)amino]but-2-enoyl}-5,6,7,8-tetrahydropyrido [4′,3′:4,5]thieno[2,3-d]pyrimidin-4-amine] | < 200 nM | < 200 nM | < 200 nM
7 | O=C(/C=C/CN1CCOCC1)N1CCc2c(sc3ncnc(Nc4ccc5c(ccn5Cc5cccc(F)c5)c4)c23)C1 [Example 108, N-[1-(3-fluorobenzyl)-1H-indol-5-yl]-7-[(2E)-4-morpholin-4-ylbut-2-enoyl]-5,6,7,8-tetrahydropyrido [4′,3′:4,5]thieno[2,3-d]pyrimidin-4-amine] | 200 to 1000 nM | < 200 nM | < 200 nM
8 | CN(C)C/C=C/C(=O)N1CCc2c(sc3ncnc(Nc4ccc5c(cnn5Cc5ccccn5)c4)c23)C1 [Example 109, 7-[(2E)-4-(dimethylamino)but-2-enoyl]-N-[1-(pyridin-2-ylmethyl)-1H-indazol-5-yl]-5,6,7,8-tetrahydropyrido [4′,3′:4,5]thieno[2,3-d]pyrimidin-4-amine] | 200 to 1000 nM | < 200 nM | 200 to 1000 nM
9 | CCN(CC)C/C=C/C(=O)N1CCc2c(sc3ncnc(Nc4ccc5c(cnn5Cc5ccccn5)c4)c23)C1 [Example 111, 7-[(2E)-4-(diethylamino)but-2-enoyl]-N-[1-(pyridin-2-ylmethyl)-1H-indazol-5-yl]-5,6,7,8-tetrahydropyrido [4′,3′:4,5]thieno[2,3-d]pyrimidin-4-amine] | 200 to 1000 nM | < 200 nM | 200 to 1000 nM
10 | O=C(/C=C/CN1CCCCC1)N1CCc2c(sc3ncnc(Nc4ccc5c(cnn5Cc5ccccn5)c4)c23)C1 [Example 112, 7-[(2E)-4-piperidin-1-ylbut-2-enoy]-N-[1-(pyridin-2-ylmethyl)-1H-indazol-5-yl]-5,6,7,8-tetrahydropyrido [4′,3′:4,5]thieno[2,3-d]pyrimidin-4-amine] | 200 to 1000 nM | < 200 nM | 200 to 1000 nM
11 | O=C(/C=C/CN1CCOCC1)N1CCc2c(sc3ncnc(Nc4ccc5c(cnn5Cc5ccccn5)c4)c23)C1 [Example 113, 7-[(2E)-4-morpholin-4-ylbut-2-enoyl]-N-[1-(pyridin-2-ylmethyl)-1H-indazol-5-yl]-5,6,7,8-tetrahydropyrido [4′,3′:4,5]thieno[2,3-d]pyrimidin-4-amine] | 200 to 1000 nM | < 200 nM | 200 to 1000 nM
12 | O=C(/C=C/CN1CCCCC1)N1CCc2c(sc3ncnc(Nc4ccc5c(ccn5Cc5ccccn5)c4)c23)C1 [Example 114, 7-[(2E)-4-piperidin-1-ylbut-2-enoyl]-N-[1-(pyridin-2-ylmethyl)-1H-indol-5-yl]-5,6,7,8-tetrahydropyrido [4′,3′:4,5]thieno[2,3-d]pyrimidin-4-amine] | < 200 nM | < 200 nM | < 200 nM
13 | CCN(C)C/C=C/C(=O)N1CCc2c(sc3ncnc(Nc4ccc5c(cnn5Cc5cccc(F)c5)c4)c23)C1 [Example 115, 7-{(2E)-4-[ethyl(methyl)amino]but-2-enoyl}-N-[1-(3-fluorobenzyl)-1H-indazol-5-yl]-5,6,7,8-tetrahydropyrido [4′,3′:4,5]thieno[2,3-d]pyrimidin-4-amine] | < 200 nM | < 200 nM | < 200 nM
14 | CC(C)N(C)C/C=C/C(=O)N1CCc2c(sc3ncnc(Nc4ccc5c(cnn5Cc5ccccn5)c4)c23)C1 [Example 116, 7-{(2E)-4-[isopropyl(methyl)amino]but-2-enoyl}-N-[1-(pyridin-2-ylmethyl)-1H-indazol-5-yl]-5,6,7,8-tetrahydropyrido [4′,3′:4,5] thieno[2,3-d]pyrimidin-4-amine] | 200 to 1000 nM | < 200 nM | 200 to 1000 nM
15 | CC(C)N(C)C/C=C/C(=O)N1CCc2c(sc3ncnc(Nc4ccc5c(ccn5Cc5ccccn5)c4)c23)C1 [Example 117, 7-{(2E)-4-[isopropyl(methyl)amino]but-2-enoyl}-N-[1-(pyridin-2-ylmethyl)-1H-indol-5-yl]-5,6,7,8-tetrahydropyrido [4′,3′:4,5]thieno[2,3-d]pyrimidin-4-amine] | < 200 nM | < 200 nM | 200 to 1000 nM
16 | CC(C)N(C)C/C=C/C(=O)N1CCc2c(sc3ncnc(Nc4ccc5c(ccn5Cc5ccccc5)c4)c23)C1 [Example 118, N-(1-benzyl-1H-indol-5-yl)-7-{(2E)-4-[isopropyl(methyl)amino]but-2-enoyl}-5,6,7,8-tetrahydropyrido [4′,3′:4,5]thieno[2,3-d]pyrimidin-4-amine] | < 200 nM | < 200 nM | < 200 nM
17 | CCN(CC)C/C=C/C(=O)N1CCc2c(sc3ncnc(Nc4ccc5c(ccn5Cc5ccccn5)c4)c23)C1 [Example 121, 7-[(2E)-4-(diethylamino)but-2-enoyl]-N-[1-(pyridin-2-ylmethyl)-1H-indol-5-yl]-5,6,7,8-tetrahydropyrido [4′,3′:4,5]thieno[2,3-d]pyrimidin-4-amine] | 200 to 1000 nM | < 200 nM | 200 to 1000 nM
18 | CC(C)N(C)C/C=C/C(=O)N1CCc2c(sc3ncnc(Nc4ccc5c(ccn5Cc5cccc(F)c5)c4)c23)C1 [Example 122, N-[1-(3-fluorobenzyl)-1H-indol-5-yl]-7-{(2E)-4-[isopropyl(methyl)amino]but-2-enoyl}-5,6,7,8-tetrahydropyrido [4′,3′:4,5]thieno[2,3-d]pyrimidin-4-amine] | < 200 nM | < 200 nM | 200 to 1000 nM
19 | CC(C)N(C)C/C=C/C(=O)N1CCc2c(sc3ncnc(Nc4ccc5c(cnn5Cc5cccc(F)c5)c4)c23)C1 [Example 123, N-[1-(3-fluorobenzyl)-1H-indazol-5-yl]-7-{(2E)-4-[isopropyl(methyl)amino]but-2-enoyl}-5,6,7,8-tetrahydropyrido [4′,3′:4,5]thieno[2,3-d]pyrimidin-4-amine] | < 200 nM | < 200 nM | < 200 nM
20 | CN(C/C=C/C(=O)N1CCc2c(sc3ncnc(Nc4ccc5c(cnn5Cc5cccc(F)c5)c4)c23)C1)C(C)(C)C [Example 124, 7-{(2E)-4-[tert-butyl(methyl)amino]but-2-enoyl}-N-[1-(3-fluorobenzyl)-1H-indazol-5-yl]-5,6,7,8-tetrahydropyrido [4′,3′:4,5]thieno[2,3-d]pyrimidin-4-amine] | < 200 nM | < 200 nM | < 200 nM
21 | CN(C/C=C/C(=O)N1CCc2c(sc3ncnc(Nc4ccc5c(ccn5Cc5cccc(F)c5)c4)c23)C1)C(C)(C)C [Example 125, 7-{(2E)-4-[tert-butyl(methyl)amino]but-2-enoyl}-N-[1-(3-fluorobenzyl)-1H-indol-5-yl]-5,6,7,8-tetrahydropyrido [4′,3′:4,5]thieno[2,3-d]pyrimidin-4-amine] | 200 to 1000 nM | < 200 nM | 200 to 1000 nM
22 | CN(C/C=C/C(=O)N1CCc2c(sc3ncnc(Nc4ccc5c(cnn5Cc5ccccc5)c4)c23)C1)C(C)(C)C [Example 126, N-(1-benzyl-1H-indazol-5-yl)-7-{(2E)-4-[tert-butyl(methyl)amino]but-2-enoyl}-5,6,7,8-tetrahydropyrido [4′,3′:4,5]thieno[2,3-d]pyrimidin-4-amine] | < 200 nM | < 200 nM | < 200 nM
